{"source": "paper PMC10002517", "about": "“Inhibition of Transglutaminase 2 as a Therapeutic Strategy in Celiac Disease—In Vitro Studies in Intestinal Cells and Duodenal Biopsies” (International Journal of Molecular Sciences, 2023)", "key": {"[1]": {"system": "gliadin peptide uptake (P31-43 and P57-68)", "settings": "cited from earlier work", "from_the_text": "Since TG2 is expressed on the surface of epithelial cells and plays a role in transcytosis, we aimed to investigate the effect of TG2 inhibitors on the epithelial uptake of gliadin peptides. First, we confirmed the results from Caputo et al. and Zimmermann et al. by showing that the translocation of P31-43, but not of P56-88, was inhibited by the endocytosis inhibitor MBCD [21, 37]."}, "[2]": {"system": "transepithelial passage of P31-43 in Caco-2 cells", "assay": "Transepithelial transport of promofluor-conjugated gliadin peptide P31-43 across Caco-2 monolayers (fluorometry)", "assay_type": "cell-based, human", "settings": "in the presence of MBCD; 7 µg/mL peptide apical in HBSS, 3 h; normalized to no inhibitor; mean ± SD, n = 3", "method": "(§1) Transepithelial transport of immunogenic and toxic gliadin peptides were examined in Caco-2 cells 7–14 days after confluency. Caco-2 cells were seeded on semi-permeable transwell supports (ThinCert, culture surface: 33.6 mm², pore size: 0.4 µm) in 24-well plates (Greiner Bio One, Pleidelsheim, Germany). Prior to the transport experiments, the integrity of the cell monolayer was tested by measuring the transepithelial electric resistance (TEER) using a volt-ohm meter (Millipore, Schwalbach, Germany). Monolayers with insufficient TEER (<350 Ω/cm^2) were omitted. The synthesis and purification of promofluor-conjugated gliadin peptides were described elsewhere. Cells were either incubated with the immunogenic peptide P56-88 ([…]) or the toxic gliadin peptide P31-43 (LGQQQPFPPQQPY), 7 µg/mL each, in Hank’s balanced salt solution (HBSS) for 3 h. To investigate the role of TG2 on the transport of gliadin peptides, incubation was performed in the presence of ERW1041 and PX-12. After 3 h, basal and apical supernatants were collected, and the relative fluorescence of the basal compartment was quantified using a FLUOstar Optima (BMG Labtech) microplate reader. Background subtraction was performed against conditions, where no labeled peptides were used. Normalization was performed against conditions, where no inhibitors were used."}, "[3]": {"system": "transepithelial passage of P56-88 in Caco-2 cells", "assay": "Transepithelial transport of promofluor-conjugated gliadin peptide P56-88 across Caco-2 monolayers (fluorometry)", "assay_type": "cell-based, human", "settings": "3 h", "method": "as §1"}, "[4]": {"target": "T1, TG2 in Caco-2 cell lysates (Homo sapiens, UniProt P21980)", "T1 construct": "endogenous in cells; host or cells: Caco-2 (differentiated; IFN-γ-stimulated in the monolayer assay)", "T1 sequence (P21980 1-687)": "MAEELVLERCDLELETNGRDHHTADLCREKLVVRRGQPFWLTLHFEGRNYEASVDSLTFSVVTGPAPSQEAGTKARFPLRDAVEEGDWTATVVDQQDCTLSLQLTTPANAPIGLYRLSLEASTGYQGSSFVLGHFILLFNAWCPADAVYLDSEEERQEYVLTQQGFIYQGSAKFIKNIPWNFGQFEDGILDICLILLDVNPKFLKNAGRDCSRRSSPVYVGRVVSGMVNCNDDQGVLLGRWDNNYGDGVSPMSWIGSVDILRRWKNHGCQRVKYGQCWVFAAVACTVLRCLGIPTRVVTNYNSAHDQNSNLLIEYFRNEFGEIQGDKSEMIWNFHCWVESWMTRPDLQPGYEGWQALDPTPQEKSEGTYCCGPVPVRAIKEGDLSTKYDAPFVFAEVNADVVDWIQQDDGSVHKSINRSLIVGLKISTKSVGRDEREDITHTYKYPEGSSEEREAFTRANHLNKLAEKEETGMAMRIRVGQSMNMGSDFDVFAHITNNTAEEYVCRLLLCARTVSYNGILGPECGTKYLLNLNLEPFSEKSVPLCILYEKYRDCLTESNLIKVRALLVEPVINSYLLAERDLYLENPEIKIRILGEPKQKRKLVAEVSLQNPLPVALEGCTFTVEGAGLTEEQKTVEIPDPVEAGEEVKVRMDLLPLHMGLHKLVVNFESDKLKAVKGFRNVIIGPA", "assay": "Transglutaminase activity in Caco-2 whole cell lysates (5BP cross-linking)", "assay_type": "biochemical", "settings": "protein lysate treated with 10 mM DTT for 1 h; mean ± SD, n = 3", "method": "The method to investigate TG2 activity from whole cell lysates was adapted from Lin et al.. In brief, 20 µg protein per cavity on the 96-well plate were incubated in 50 mM Tris, 1 mM EDTA, 5 mM calcium chloride (pH 7.5) buffer in the presence of 500 µM 5BP (5-biotinamidopentylamine, Thermo Fisher Scientific, Langenselbold, Germany) for the indicated time. After incubation, the plate was washed three times with PBS + 0.05% Tween. After blocking with 5% BSA in PBS for 1 h, the plate was incubated with 2 µg/mL streptavidin-Alexa Fluor 488 (Thermo Fisher Scientific) in 5% BSA. After 3 washing steps with PBS + 0.05% Tween, fluorometric evaluation was performed using a Clariostar Plus (BMG Labtech) microplate reader (no well scan mode, excitation 488 nm, emission 535 nm, fixed gain: 2000)."}, "[5]": {"target": "T2, TG2 in the intestinal lamina propria (Homo sapiens, UniProt P21980)", "T2 construct": "from tissue; host or cells: duodenal biopsies from celiac disease patients (unfixed 400 nm cryosections, lamina propria)", "T2 sequence (P21980 1-687)": "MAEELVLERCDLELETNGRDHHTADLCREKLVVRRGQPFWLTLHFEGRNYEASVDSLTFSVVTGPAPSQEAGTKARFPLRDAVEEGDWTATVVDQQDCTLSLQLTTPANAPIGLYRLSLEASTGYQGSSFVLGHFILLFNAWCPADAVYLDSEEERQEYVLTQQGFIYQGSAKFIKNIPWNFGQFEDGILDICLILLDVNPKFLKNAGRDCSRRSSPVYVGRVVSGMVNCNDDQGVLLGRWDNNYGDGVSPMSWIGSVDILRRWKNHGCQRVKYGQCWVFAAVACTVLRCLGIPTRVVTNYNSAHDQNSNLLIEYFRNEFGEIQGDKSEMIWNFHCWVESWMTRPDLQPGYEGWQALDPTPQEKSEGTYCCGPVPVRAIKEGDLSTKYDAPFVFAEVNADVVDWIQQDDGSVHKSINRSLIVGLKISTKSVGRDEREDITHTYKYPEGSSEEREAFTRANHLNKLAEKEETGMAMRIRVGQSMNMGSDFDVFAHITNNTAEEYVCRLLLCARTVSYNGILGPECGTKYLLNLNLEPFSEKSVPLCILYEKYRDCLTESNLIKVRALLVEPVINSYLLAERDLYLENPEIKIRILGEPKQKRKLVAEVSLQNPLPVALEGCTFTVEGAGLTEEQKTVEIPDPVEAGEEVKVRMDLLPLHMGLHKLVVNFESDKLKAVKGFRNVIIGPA", "assay": "TG2 activity in cryosections of duodenal biopsies from CD patients (5BP, confocal microscopy)", "assay_type": "biochemical", "settings": "increasing amounts of DTT in the incubation buffer", "method": "For immunofluorescence microscopic investigation of transglutaminase activity, only biopsies with minor macroscopic inflammatory signs were used. After endoscopy, biopsies were immediately washed three times in PBS and cryopreserved in polyvinylpyrrolidone sucrose at 4 °C overnight. Biopsies were mounted on specimen holders using Tissue-Tek O.C.T (Sakura Finetek, Staufen im Breisgau, Germany) compound and frozen in liquid nitrogen. For evaluation of transglutaminase activity by the post-embedding procedure, 400 nm cryosections were obtained using a cryo-ultramicrotome (Leica EM UC6, Leica, Wetzlar, Germany) and mounted on class cover slides. After three brief washes with PBS, tissue sections were incubated with the indicated concentrations of the inhibitors for 1 h in tris buffer. Then, the TG2 substrate 5BP was incubated for 1 h at 37 °C in tris buffer containing DTT at the indicated concentration. Slides were washed three times in PBS, fixed in 4% paraformaldehyde (10 min), permeabilized with 0.5% Triton (10 min) and incubated with blocking solution (0.1% cold water fish skin gelatin + 5% BSA + 5% goat serum, 10 min). Afterwards, a rabbit polyclonal antibody directed against human TG2 (Kan5, kindly provided by Dr T. Mothes, Institute of Laboratory Medicine, University Hospital Leipzig, Germany) was applied at 1:200 dilution in blocking solution overnight at 4 °C. After three washing steps (each 5 min) with PBS, Alexa Fluor-555-conjugated secondary antibody (goat-anti-rabbit, 1:200, Thermo Fisher Scientific) and Alexa Fluor-488-conjugated streptavidin (2 µg/mL, Thermo Fisher Scientific) were incubated at room temperature in the dark for 1 h. After three washes with PBS, samples were covered in ProLong Gold antifade mountant (Thermo Fisher Scientific) and sealed with clear nail polish. Sealed slides were stored in the dark at 4 °C until microscopy.\nImaging was done using a confocal laser scanning microscope (TE2000-E, Nikon, Langen, Germany) and a 60× Plan Apo (NA 1.41) immersion oil objective. The detailed acquisition settings and the corresponding macro (Image J [46]) for image processing can be accessed in the Supplementary Materials methods (S1). Five images per patient where quantified. For quantitation, mean fluorescence intensity of TG2 activity (488 nm channel) was normalized to TG2 expression (555 nm channel) within the intestinal lamina propria."}, "[6]": {"target": "T3, extracellular TG2 on Caco-2 cells (Homo sapiens, UniProt P21980)", "T3 construct": "endogenous in cells; host or cells: Caco-2 (differentiated; IFN-γ-stimulated in the monolayer assay)", "T3 sequence (P21980 1-687)": "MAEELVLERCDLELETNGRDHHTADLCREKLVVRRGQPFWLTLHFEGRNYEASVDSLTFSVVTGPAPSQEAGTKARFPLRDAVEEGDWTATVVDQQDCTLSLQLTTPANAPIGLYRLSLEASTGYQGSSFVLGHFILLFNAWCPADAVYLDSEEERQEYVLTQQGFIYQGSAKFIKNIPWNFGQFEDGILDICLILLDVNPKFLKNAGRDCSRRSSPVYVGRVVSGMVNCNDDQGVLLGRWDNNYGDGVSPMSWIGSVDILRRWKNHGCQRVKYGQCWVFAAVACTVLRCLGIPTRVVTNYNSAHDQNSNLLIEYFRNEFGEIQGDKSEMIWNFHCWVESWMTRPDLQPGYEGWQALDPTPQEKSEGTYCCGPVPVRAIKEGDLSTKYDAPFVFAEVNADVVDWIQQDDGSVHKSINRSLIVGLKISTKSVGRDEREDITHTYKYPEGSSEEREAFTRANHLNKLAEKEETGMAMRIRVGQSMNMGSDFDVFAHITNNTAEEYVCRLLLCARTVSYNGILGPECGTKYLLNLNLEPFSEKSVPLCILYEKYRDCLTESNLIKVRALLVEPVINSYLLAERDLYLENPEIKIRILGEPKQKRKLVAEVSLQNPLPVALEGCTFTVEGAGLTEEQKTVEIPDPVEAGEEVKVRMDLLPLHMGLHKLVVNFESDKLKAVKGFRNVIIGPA", "assay": "Extracellular TG2 activity on confluent Caco-2 cell monolayers (5BP cross-linking)", "assay_type": "cell-based", "settings": "1 mM DTT, 3 h with 5BP, mean ± SD, n = 4", "method": "The method was adapted from Yi et al.. To induce TG2 expression, Caco-2 cells were stimulated with IFN-γ 1000 IU/mL for 48 h. Then, cells were washed three times with warm PBS and incubated with the substrate 5BP for 3 h at 37 °C in 50 mM Tris and 1 mM EDTA (pH 7.5). The substances ERW1041, PX-12 and DTT were added to this solution when indicated. After incubation, cells were washed three times with PBS, fixed with 4% paraformaldehyde for 10 min and blocked with 5% BSA in PBS at 4 °C overnight. Then, cells were incubated at room temperature with streptavidin-Alexa488 (Thermo Scientific, 4 µg/mL) in 5% BSA in the dark for 1 h, followed by three washes with PBS. Fluorometric quantitation was conducted using a FLUOstar Optima microplate reader (BMG Labtech, filter settings: excitation 485 nm, emission 525 nm). Manual gain adjustment was performed, setting the well with the most intense signal as 95%. In all experiments, data were background subtracted against a control without 5BP substrate."}, "[7]": {"system": "uptake of P56-88 by Caco-2 cells", "assay": "Epithelial uptake of P56-88 by Caco-2 cells (confocal microscopy)", "assay_type": "cell-based, human", "settings": "1 h incubation; z-stack imaging and 3D reconstruction", "method": "For microscopic evaluation, Caco-2 cells were seeded on polymer-covered µ-slides (80826, Ibidi) and incubated for 1 h with labeled gliadin peptides in the presence of TG2 inhibitors. After three washes with PBS, cells were fixed with 4% paraformaldehyde. Nuclear staining was performed for 10 min using Hoechst fluorescent stain (1:1000 in PBS). Imaging was done using a confocal laser scanning microscope (TE2000-E, Nikon) and a 60× Plan Apo (NA 1.41) immersion oil objective. Processing of z-stacks, including 3D reconstruction, was performed using ImageJ [46]. For quantitation, z-stack images were taken with the same microscope settings. Using ImageJ, maximum intensity projections were obtained of the z-stack images, and the fluorescence intensity was measured within the whole image."}}}
{"compound": "CN(C)c1cccc2c(S(=O)(=O)NCCCCCN)cccc12", "note": "[monodansyl cadaverine]", "values": [{"measurement": "effect on gliadin peptide uptake (P31-43 and P57-68)", "setting": "[1]", "result": "did not show an effect"}]}
{"compound": "methyl-β-cyclodextrin [MBCD]", "values": [{"measurement": "transepithelial passage of P31-43 (relative basal fluorescence)", "setting": "[2]", "result": "58 ± 7", "unit": "%"}, {"measurement": "transepithelial transport of P56-88 (relative basal fluorescence)", "setting": "[3]; in the presence of MBCD, 7 µg/mL peptide apical in HBSS, normalized to no inhibitor, n.s., mean ± SD, n = 3", "result": "89 ± 13", "unit": "%"}]}
{"compound": "O[C@@H](CS)[C@@H](O)CS", "note": "(racemic) [DTT, dithiothreitol]", "values": [{"measurement": "TG2 activity in Caco-2 cell lysates", "setting": "[4]", "result": "395 ± 21", "unit": "%"}, {"measurement": "effect of DTT on TG2 activity in cryopreserved tissue sections", "setting": "[5]", "result": "enhanced TG2 activity in the cryopreserved tissue in a dose-dependent manner"}, {"measurement": "TG2-mediated crosslinking", "setting": "[6]; IFN-γ-stimulated Caco-2 cells, not significant", "result": "123 ± 24", "unit": "%"}, {"measurement": "TG2-mediated crosslinking", "setting": "[6]; non-stimulated Caco-2 cells", "result": "141 ± 17", "unit": "%"}]}
{"compound": "LQLQPFPQPQLPYPQPQLPYPQPQLPYPQPQPF [P56-88]", "values": [{"measurement": "cellular localization of the peptide", "setting": "[7]", "result": "localized in the supranuclear cell region"}, {"measurement": "translocation from the apical to the basal compartment", "setting": "[3]; Caco-2 monolayer on transwell, A-B, 7 µg/mL in HBSS, TEER >= 350 Ω/cm^2, fluorometry", "result": "detected in the basal compartment"}]}
